Results as given in patent US8481502B2, “Antibacterial aminoglycoside analogs” (Achaogen, Inc., priority 2009, dated 2013).
Converted amounts (≈) assume the structure as drawn.

Experiments:
[1] = tested on: E. coli ATCC 25922 (AECO001); assay: MIC assay, CLSI broth microdilution, AECO001; assay type: cell-based; conditions: Escherichia coli; AECO001 is ATCC25922; Mueller Hinton Broth, 35 C, 20 hours
Method: (§1) Minimum inhibitory concentrations (MIC) were determined by reference Clinical and Laboratory Standards Institute (CLSI) broth microdilution methods per M7-A7 [2006]. Quality control ranges utilizing E. coli ATCC 25922, P. aeruginosa ATCC 27853 and S. aureus ATCC 29213, and interpretive criteria for comparator agents were as published in CLSI M100-S17 [2007]. Briefly, serial two-fold dilutions of the test compounds were prepared at 2× concentration in Mueller Hinton Broth. The compound dilutions were mixed in 96-well assay plates in a 1:1 ratio with bacterial inoculum. The inoculum was prepared by suspension of a colony from an agar plate that was prepared the previous day. Bacteria were suspended in sterile saline and added to each assay plate to obtain a final concentration of 5×10^5 CFU/mL. The plates were incubated at 35 C for 20 hours in ambient air.

[2] = tested on: P. aeruginosa ATCC 27853 (APAE001); assay: MIC assay, CLSI broth microdilution, APAE001; assay type: cell-based; conditions: Pseudomonas aeruginosa; APAE001 is ATCC27853; Mueller Hinton Broth, 35 C, 20 hours
Method: as §1

Compound	MIC [1] [µg/mL]	MIC [2] [µg/mL]
NC[C@@H]1C[C@@H](O)[C@@H](N)[C@@H](O[C@H]2[C@H](O[C@@H]3O[C@H](CO)[C@@H](O[C@H]4O[C@@H](CN)[C@@H](O)[C@H](O)[C@H]4N)[C@H]3O)[C@@H](O)[C@H](NC(=O)[C@@H](O)[C@H](F)CN)C[C@@H]2N)O1 [7/3]	1 to 16 (≈ 1.39 to 22.3 µM)	≤ 1
NC[C@@H]1O[C@H](O[C@H]2[C@@H](O)[C@H](O[C@@H]3[C@@H](O)[C@H](NC(=O)[C@@H](O)[C@@H](O)CN)C[C@H](N)[C@H]3O[C@H]3O[C@H](CN)[C@@H](O)C[C@H]3N)O[C@@H]2CO)[C@H](N)[C@@H](O)[C@@H]1O [2/3]	1 to 16 (≈ 1.4 to 22.4 µM)	≤ 1
NC[C@@H](O)[C@H](O)C(=O)N[C@@H]1C[C@H](N)[C@@H](O[C@H]2O[C@H](CN)[C@@H](O)C[C@H]2N)[C@H](O[C@@H]2O[C@H](CO)[C@@H](O[C@H]3O[C@@H](CN)[C@@H](O)[C@H](O)[C@H]3N)[C@H]2O)[C@H]1O [1/11]	1 to 16 (≈ 1.4 to 22.4 µM)	≤ 1
NC[C@@H](F)[C@H](O)C(=O)N[C@@H]1C[C@H](N)[C@@H](O[C@H]2O[C@H](CN)[C@@H](O)C[C@H]2N)[C@H](O[C@@H]2O[C@H](CO)[C@@H](O[C@H]3O[C@@H](CN)[C@@H](O)[C@H](O)[C@H]3N)[C@H]2O)[C@H]1O [3/3]	≤ 1	≤ 1
NC[C@@H]1C[C@@H](O)[C@@H](N)[C@@H](O[C@H]2[C@H](O[C@@H]3O[C@H](CO)[C@@H](O[C@H]4O[C@@H](CN)[C@@H](O)[C@H](O)[C@H]4N)[C@H]3O)[C@@H](O)[C@H](NC(=O)[C@@H](O)C(F)(F)CN)C[C@@H]2N)O1 [8/3]	1 to 16 (≈ 1.36 to 21.7 µM)	≤ 1
NC[C@@H]1C[C@@H](O)[C@@H](N)[C@@H](O[C@H]2[C@H](O[C@@H]3O[C@H](CO)[C@@H](O[C@H]4O[C@@H](CN)[C@@H](O)[C@H](O)[C@H]4N)[C@H]3O)[C@@H](O)[C@H](NC(=O)[C@@H](O)[C@@H](O)CN)C[C@@H]2N)O1 [6/3]	1 to 16 (≈ 1.4 to 22.4 µM)	≤ 1
NC[C@@H]1O[C@H](O[C@H]2[C@@H](O)[C@H](O[C@@H]3[C@@H](O)[C@H](NC(=O)[C@@H](O)C(F)(F)CN)C[C@H](N)[C@H]3O[C@H]3O[C@H](CN)[C@@H](O)C[C@H]3N)O[C@@H]2CO)[C@H](N)[C@@H](O)[C@@H]1O [4/3]	1 to 16 (≈ 1.36 to 21.7 µM)	≤ 1
NC[C@@H]1C[C@@H](O)[C@@H](N)[C@@H](O[C@H]2[C@H](O[C@@H]3O[C@H](CO)[C@@H](O[C@H]4O[C@@H](CN)[C@@H](O)[C@H](O)[C@H]4N)[C@H]3O)[C@@H](O)[C@H](NC(=O)[C@@H](O)[C@H](O)CN)C[C@@H]2N)O1 [5/12]	1 to 16 (≈ 1.4 to 22.4 µM)	≤ 1
